Results published in patent US20260028336A1 (Arcus Biosciences, Inc., priority 2022, published 2026).

How the values were obtained:
Cbl-b = target: T1, Cbl-b (Homo sapiens, UniProt Q13191); test: Cbl-b probe displacement HTRF binding assay; settings: 0.4 nM biotinylated Cbl-b, 150 nM BODIPY probe
T1 construct: biotin (biotinylated)
How it was run: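 Biotinylated Cbl-b was preincubated with compound for 60 min at room temperature in HEPES/NaCl/Triton/TCEP/BSA buffer. BODIPY probe was added for 15 min, followed by streptavidin-terbium, and the HTRF signal was read. Displacement was normalised to DMSO and no-protein controls, and affinity was obtained from a four-parameter dose-response fit.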

Jurkat cells = test: IL-2 secretion assay in CD3/CD28-activated Jurkat cells (AlphaLISA); format: cell-based; settings: Homo sapiens, CD3/CD28 T Cell Activator, 24 h, IL-2 AlphaLISA
How it was run: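 Jurkat cells (50,000/well) were preincubated 1 h at 37° C with compound in a 16-point 1:2 series spanning 10 μM to 300 pM final. Cells were then activated with CD3/CD28 T cell activator, and secreted IL-2 was read by AlphaLISA. EC50 came from 4-parameter logistic fits.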

T1 sequence (Q13191 whole entry, species assumed): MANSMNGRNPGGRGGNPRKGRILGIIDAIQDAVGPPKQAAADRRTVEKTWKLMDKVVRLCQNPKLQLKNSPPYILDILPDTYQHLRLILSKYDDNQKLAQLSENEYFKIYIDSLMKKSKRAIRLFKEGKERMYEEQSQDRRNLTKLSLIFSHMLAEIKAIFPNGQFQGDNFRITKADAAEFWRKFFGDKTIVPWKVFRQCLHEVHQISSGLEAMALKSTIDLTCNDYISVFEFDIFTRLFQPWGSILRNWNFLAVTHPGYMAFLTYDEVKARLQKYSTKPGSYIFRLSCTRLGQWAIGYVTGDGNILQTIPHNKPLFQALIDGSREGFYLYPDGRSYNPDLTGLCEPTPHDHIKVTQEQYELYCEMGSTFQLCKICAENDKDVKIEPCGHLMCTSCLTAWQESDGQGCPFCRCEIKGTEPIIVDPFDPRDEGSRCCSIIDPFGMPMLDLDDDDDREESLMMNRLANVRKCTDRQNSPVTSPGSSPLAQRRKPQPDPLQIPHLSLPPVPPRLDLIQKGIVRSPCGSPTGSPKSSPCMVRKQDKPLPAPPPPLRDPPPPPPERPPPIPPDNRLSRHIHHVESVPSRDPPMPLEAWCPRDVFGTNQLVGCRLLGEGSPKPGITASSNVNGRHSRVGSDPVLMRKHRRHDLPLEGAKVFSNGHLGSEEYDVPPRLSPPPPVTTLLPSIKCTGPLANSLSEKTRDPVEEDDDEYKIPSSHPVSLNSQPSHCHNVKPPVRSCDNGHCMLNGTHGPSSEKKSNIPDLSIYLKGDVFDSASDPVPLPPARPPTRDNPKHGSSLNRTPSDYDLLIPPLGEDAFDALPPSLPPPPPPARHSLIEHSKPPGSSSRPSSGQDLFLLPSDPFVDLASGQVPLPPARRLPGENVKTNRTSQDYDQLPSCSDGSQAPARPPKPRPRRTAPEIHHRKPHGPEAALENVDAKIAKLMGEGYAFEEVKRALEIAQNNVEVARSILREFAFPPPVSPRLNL

SMILES | IC50 (Cbl-b) | EC50 (Jurkat cells)
CC1CC(c2cccc(-n3cc(C4CC4)c4cc(CN(C)S(C)(=O)=O)[nH]c4c3=O)c2)(c2nncn2C)C1 (stereo not drawn) [Example 69, N-[(4-cyclopropyl-7-oxo-6-{3-[(1r,3s)-3-methyl-1-(4-methyl-4H-1,2,4-triazol-3-yl)cyclobutyl]phenyl}-1H,6H,7H-pyrrolo[2,3-c]pyridin-2-yl)methyl]-N-methylmethanesulfonamide] | 100 to 1000 nM | 1000 to 5000 nM
C[C@H]1CCCN(Cc2cc3c(C4CC4)cn(-c4cccc(C(C)(F)c5nccn5C)c4)c(=O)c3[nH]2)C1 (stereo partly drawn) [Example 164] | 1000 to 5000 nM | 1000 to 5000 nM
C[C@@H]1CN(Cc2nc3c(C(F)(F)F)cn(-c4cccc(C5(c6nncn6C)CC(F)(F)C5)c4)c(=O)c3[nH]2)CCO1 [Example 114, 5-[3-[3,3-difluoro-1-(4-methyl-1,2,4-triazol-3-yl)cyclobutyl]phenyl]-2-[[(2R)-2-methylmorpholin-4-yl]methyl]-7-(trifluoromethyl)-3H-imidazo[4,5-c]pyridin-4-one] | 100 to 1000 nM | > 5000 nM
C[C@H]1CCCN(Cc2cc3c(C4CC4)cn(-c4cccc([C@]5(c6nccn6C)C[C@H](OC(F)F)C5)c4)c(=O)c3[nH]2)C1 [Example 97, 4-cyclopropyl-6-[3-[3-(difluoromethoxy)-1-(1-methylimidazol-2-yl)cyclobutyl]phenyl]-2-[[(3S)-3-methylpiperidin-1-yl]methyl]-1H-pyrrolo[2,3-c]pyridin-7-one] | < 100 nM | 100 to 1000 nM
CC1CC(c2cccc(-n3cc(C4CC4)c4cc(CN[C@H]5CCOC5)[nH]c4c3=O)c2)(c2nncn2C)C1 (stereo partly drawn) [Example 56, 4-cyclopropyl-2-({[(3S)-oxolan-3-yl]amino}methyl)-6-{3-[(1r,3s)-3-methyl-1-(4-methyl-4H-1,2,4-triazol-3-yl)cyclobutyl]phenyl}-1H,6H,7H-pyrrolo[2,3-c]pyridin-7-one] | < 100 nM | 100 to 1000 nM
Cc1nnc(C2(c3cccc(-n4cc(C5CC5)c5cc(CN6CCC[C@H](C)C6)[nH]c5c4=O)c3)CC(F)(F)C2)n1C [Example 125, 4-cyclopropyl-6-[3-[1-(4,5-dimethyl-1,2,4-triazol-3-yl)-3,3-difluorocyclobutyl]phenyl]-2-[[(3S)-3-methylpiperidin-1-yl]methyl]-1H-pyrrolo[2,3-c]pyridin-7-one] | 1000 to 5000 nM | 1000 to 5000 nM
Cn1nccc1-c1c[nH]c2c(=O)n(-c3cccc([C@]4(c5nncn5C)C[C@@H](C)C4)c3)cc(C3CC3)c12 [Example 132, 4-Cyclopropyl-3-(1-methyl-1H-pyrazol-5-yl)-6-{3-[(1R,3S)-3-methyl-1-(4-methyl-4H-1,2,4-triazol-3-yl)cyclobutyl]phenyl}-1H,6H,7H-pyrrolo[2,3-c]pyridin-7-one] | < 100 nM | 1000 to 5000 nM
Cn1cnnc1C1(c2cccc(-n3cc(C4CC4)c4cc(CN5CCC[C@@H]5CO)[nH]c4c3=O)c2)CC(F)(F)C1 [Example 82, 4-cyclopropyl-6-{3-[3,3-difluoro-1-(4-methyl-4H-1,2,4-triazol-3-yl)cyclobutyl]phenyl}-2-{[(2R)-2-(hydroxymethyl)pyrrolidin-1-yl]methyl}-1H,6H,7H-pyrrolo[2,3-c]pyridin-7-one] | < 100 nM | 1000 to 5000 nM
C[C@H]1CCCN(Cc2nc3c(C4CC4)cn(-c4cccc(C5(c6nncn6C)CC(F)(F)C5)c4)c(=O)c3[nH]2)C1 [Example 112, 7-cyclopropyl-5-[3-[3,3-difluoro-1-(4-methyl-1,2,4-triazol-3-yl)cyclobutyl]phenyl]-2-[[(3S)-3-methylpiperidin-1-yl]methyl]-3H-imidazo[4,5-c]pyridin-4-one] | < 100 nM | < 100 nM
COC(c1cccc(-n2cc(C3CC3)c3cc(CN4CCC[C@H](C)C4)[nH]c3c2=O)c1)c1nncn1C (stereo partly drawn) [Example 158] | < 100 nM | 100 to 1000 nM
C[C@H]1CCCN(Cc2cc3c(C4CC4)cn(-c4cccc([C@]5(c6nncn6C(F)F)C[C@H](F)C5)c4)c(=O)c3[nH]2)C1 [Example 148, 2—{[(S)-3-methyl-1-piperidyl]methyl}-4-cyclopropyl-6-(m-{1-[4-(difluoromethyl)-4H-1,2,4-triazol-3-yl]-3-fluorocyclobutyl}phenyl)-1,6-dihydro-1,6-diaza-7-indenone] | < 100 nM | < 100 nM
C[C@H]1CCCN(Cc2cc3ncn(-c4cccc(C5(c6nncn6C)CC(F)(F)C5)c4)c(=O)c3[nH]2)C1 [Example 120, 3-{3-[3,3-Difluoro-1-(4-methyl-4H-1,2,4-triazol-3-yl)cyclobutyl]phenyl}-6-{[(3S)-3-methylpiperidin-1-yl]methyl}-3H,4H,5H-pyrrolo[3,2-d]pyrimidin-4-one] | < 100 nM | 100 to 1000 nM
CC1CC(c2cccc(-n3cc(C4CC4)c4cc(CN(C)C5CC5)[nH]c4c3=O)c2)(c2nncn2C)C1 (stereo not drawn) [Example 54, 4-cyclopropyl-2-{I[cyclopropyl(methyl)amino]methyl}-6-{3-[3-methyl-1-(4-methyl-4H-1,2,4-triazol-3-yl)cyclobutyl]phenyl}-1H,6H,7H-pyrrolo[2,3-c]pyridin-7-one] | < 100 nM | 100 to 1000 nM
COC(C)(c1cccc(-n2cc(C3CC3)c3cc(CN4CCC[C@H](C)C4)[nH]c3c2=O)c1)c1nncn1C (stereo partly drawn) [Example 159, 4-cyclopropyl-6-[3-[1-methoxy-1-(4-methyl-1,2,4-triazol-3-yl)ethyl]phenyl]-2-[[(3S)-3-methylpiperidin-1-yl]methyl]-1H-pyrrolo[2,3-c]pyridin-7-one] | 100 to 1000 nM | 100 to 1000 nM
C[C@H]1CCCN(Cc2cc3c(C4CC4)cn(-c4cccc(C5(Cn6cccn6)CC(F)(F)C5)c4)c(=O)c3[nH]2)C1 [Example 124] | 100 to 1000 nM | 100 to 1000 nM
Cn1cnnc1[C@]1(c2cccc(-n3cc(CO)c4cn[nH]c4c3=O)c2)C[C@H](C)C1 [Example 142, 4-(Hydroxymethyl)-6-{3-[(1R,3S)-3-methyl-1-(4-methyl-4H-1,2,4-triazol-3-yl)cyclobutyl]phenyl}-1H,6H,7H-pyrazolo[3,4-c]pyridin-7-one] | 1000 to 5000 nM | > 5000 nM
CCO[C@H]1C[C@](c2cccc(-n3cc(C4CC4)c4cc(CN5CCC[C@H](C)C5)[nH]c4c3=O)c2)(c2nncn2C)C1 [Example 98, trans-4-cyclopropyl-6-[3-[3-ethoxy-1-(4-methyl-1,2,4-triazol-3-yl)cyclobutyl]phenyl]-2-[[(3S)-3-methylpiperidin-1-yl]methyl]-1H-pyrrolo[2,3-c]pyridin-7-one] | < 100 nM | < 100 nM
Cn1cnnc1C1(c2cccc(-n3cc(C4CC4)c4cc(CNc5ccc(Cl)cc5F)[nH]c4c3=O)c2)CC(F)(F)C1 [Example 90, 2-{[(4-chloro-2-fluorophenyl)amino]methyl}-4-cyclopropyl-6-{3-[3,3-difluoro-1-(4-methyl-4H-1,2,4-triazol-3-yl)cyclobutyl]phenyl}-1H,6H,7H-pyrrolo[2,3-c]pyridin-7-one] | > 5000 nM | > 5000 nM
Cn1cnnc1C1(c2cccc(-n3cc(C(F)(F)F)c4c(C#N)c[nH]c4c3=O)c2)CC2(CC2)C1 [Example 137, 6-{3-[5-(4-Methyl-4H-1,2,4-triazol-3-yl)spiro[2.3]hexan-5-yl]phenyl}-7-oxo-4-(trifluoromethyl)-1H,6H,7H-pyrrolo[2,3-c]pyridine-3-carbonitrile] | < 100 nM | 1000 to 5000 nM
C[C@H]1CCCN(Cc2cc3c(C4CC4)cn(-c4cccc(C5(c6ncco6)CC(F)(F)C5)c4)c(=O)c3[nH]2)C1 [Example 127, 4-cyclopropyl-6-[3-[3,3-difluoro-1-(1,3-oxazol-2-yl)cyclobutyl]phenyl]-2-[[(3S)-3-methylpiperidin-1-yl]methyl]-1H-pyrrolo[2,3-c]pyridin-7-one] | 100 to 1000 nM | 100 to 1000 nM
CC1CC(c2cccc(-n3cc(C4CC4)c4cc(CN5CCN(C)[C@H](C)C5)[nH]c4c3=O)c2)(c2nncn2C)C1 (stereo partly drawn) [Example 61, 4-cyclopropyl-2-{[(3R)-3,4-dimethylpiperazin-1-yl]methyl}-6-{3-[3-methyl-1-(4-methyl-4H-1,2,4-triazol-3-yl)cyclobutyl]phenyl}-1H,6H,7H-pyrrolo[2,3-c]pyridin-7-one] | 100 to 1000 nM | 1000 to 5000 nM
Cn1cnnc1[C@]1(c2cccc(-n3cc(C4CC4)c4c(C#N)c[nH]c4c3=O)c2)C[C@H](C)C1 (single isomer, unassigned) [Example 14, 4-Cyclopropyl-7-oxo-6-{3-[(1r,3s)-3-methyl-1-(4-methyl-4H-1,2,4-triazol-3-yl)cyclobutyl]phenyl}-1H,6H,7H-pyrrolo[2,3-c]pyridine-3-carbonitrile] | < 100 nM | 100 to 1000 nM
CC1CC(c2cccc(-n3cnc4cc(CN5CCC[C@H](C)C5)[nH]c4c3=O)c2)(c2nncn2C)C1 (mixture of isomers) [Example 119, 6—{[(3S)-3-Methylpiperidin-1-yl]methyl}-3-{3-[(1R,3S)-3-methyl-1-(4-methyl-4H-1,2,4-triazol-3-yl)cyclobutyl]phenyl}-3H,4H,5H-pyrrolo[3,2-d]pyrimidin-4-one] | < 100 nM | < 100 nM
Cn1cnnc1C1(c2cccc(-n3cc(C4CC4)c4cc(CN5CCOC6(CC6)C5)[nH]c4c3=O)c2)CC(F)(F)C1 [Example 86, 4-cyclopropyl-6-{3-[3,3-difluoro-1-(4-methyl-4H-1,2,4-triazol-3-yl)cyclobutyl]phenyl}-2-({4-oxa-7-azaspiro[2.5]octan-7-yl}methyl)-1H,6H,7H-pyrrolo[2,3-c]pyridin-7-one] | 100 to 1000 nM | 1000 to 5000 nM
